# pIC50: −log10 of the molar value.
# How the values were obtained:
# MLLT1 = target: T1, MLLT1 (Homo sapiens, UniProt Q03111); assay: MLLT1 degradation assay (JESS automated chemiluminescent detection) in MV4-11 cells; type: cell-based; conditions: 24h, with respect to DMSO control
# T1 construct: endogenous in cells; host or cells: MV4-11 (ATCC CRL-9591)
# T1 sequence (Q03111 1-559): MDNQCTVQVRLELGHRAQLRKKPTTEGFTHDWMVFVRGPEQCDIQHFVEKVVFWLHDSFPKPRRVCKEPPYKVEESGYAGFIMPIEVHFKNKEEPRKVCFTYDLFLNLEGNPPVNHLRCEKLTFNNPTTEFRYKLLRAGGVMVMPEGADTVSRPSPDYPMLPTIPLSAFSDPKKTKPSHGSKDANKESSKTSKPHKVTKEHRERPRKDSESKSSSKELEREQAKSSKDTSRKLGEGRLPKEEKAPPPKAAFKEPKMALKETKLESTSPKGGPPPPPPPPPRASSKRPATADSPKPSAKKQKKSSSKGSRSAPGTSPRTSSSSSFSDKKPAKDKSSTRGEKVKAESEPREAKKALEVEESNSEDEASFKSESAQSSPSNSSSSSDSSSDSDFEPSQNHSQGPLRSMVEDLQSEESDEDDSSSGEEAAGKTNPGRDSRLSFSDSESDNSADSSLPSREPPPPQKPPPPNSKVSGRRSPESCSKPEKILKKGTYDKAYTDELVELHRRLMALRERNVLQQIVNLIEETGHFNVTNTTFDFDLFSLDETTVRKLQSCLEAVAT
# Method in brief: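 MV4-11 cells were treated with 1000, 100 or 10 nM compound (0.1% DMSO) for 24 h at 37 °C. Lysates (4 µg protein) were probed for MLLT1 and GAPDH by JESS capillary chemiluminescence. Degradation was calculated from band peak areas versus DMSO control and binned into categories A–D.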
# MV4-11 cells = assay: MV4-11 cellular proliferation assay, Assay Format A (CellTiter-Glo, 120 hours); type: cell-based; conditions: Homo sapiens, Assay method A, read-out: MV4-11 antiproliferative IC50
# Experimental: An MV4-11 proliferation assay was used to test the ability of compounds to reduce cell viability.
# After 120 hours of treatment, cells were incubated for 10 min at RT with the CellTiter-Glo (CTG) reagent (G7571, Promega). Measurement of the luminescence signal was performed on a microplate reader (Ensight, PerkinElmer). CTG reagent measures the amount of ATP, which is directly proportional to the number of cells, to determine the number of viable cells in culture.
# The data were analysed as follows: Data normalization, N(x) = (x−〈cr〉)/(〈sr〉−〈cr〉) × 100 [formula] where x is the measured raw signal value of a well, (cr) is the median of the measured signal values for the Central Reference (DMSO) wells on a plate, (sr) is the median of the measured signal values for the Scale Reference (reference compound) wells on a plate. Curve fitting, S0 + (Sinf −S0)/(1 + (((AC50)/(10^c)))^n) [formula] where the experimental set-up assumes the Hill parameters in certain ranges: S0 ~ Central Reference (CR) from normalization (= Bottom), Sinf ~ Scale Reference (SR) from normalization (= Top), nHill ~ 1, AC50 ~ within the measured concentration range.
Structure (SMILES),inhibition at 0.01 µM (MLLT1),inhibition at 0.1 µM (MLLT1),inhibition at 1 µM (MLLT1),pIC50 (MV4-11 cells)
"Cc1nn(CCCCCCCCNc2cccc3c2CN(C2CCC(=O)NC2=O)C3=O)c2cc(C(=O)Nc3cc4[nH]c([C@H]5CCCN5C)cc4cn3)ccc12 (stereo partly drawn) [Example 16, 1-(8-{[2-(2,6-dioxopiperidin-3-yl)-1-oxo-3H-isoindol-4-yl]amino}octyl)-3-methyl-N-{2-[(2R)-1-methylpyrrolidin-2-yl]-1H-pyrrolo[3,2-c]pyridin-6-yl}indazole-6-carboxamide]",≥ 75%,≥ 75%,≥ 75%,8.05
"Cc1nn(CCCCCCCC#Cc2cccc3c2CN(C2CCC(=O)NC2=O)C3=O)c2cc(C(=O)Nc3cc4[nH]c([C@H]5CCCN5C)cc4cn3)ccc12 (mixture of isomers) [Example 1, 1-(9-(2-(2,6-dioxopiperidin-3-yl)-1-oxoisoindolin-4-yl)non-8-yn-1-yl)-3-methyl-N-(2-((R)-1-methylpyrrolidin-2-yl)-1H-pyrrolo[3,2-c]pyridin-6-yl)-1H-indazole-6-carboxamide]",≥ 75%,≥ 75%,≥ 75%,8.40
"Cc1nn(CCOCCOCCNc2cccc3c2C(=O)N(C2CCC(=O)NC2=O)C3=O)c2cc(C(=O)Nc3cc4[nH]c([C@H]5CCCN5C)cc4cn3)ccc12 (stereo partly drawn) [Example 25, 1-(2-(2-(2-((2-(2,6-dioxopiperidin-3-yl)-1,3-dioxoisoindolin-4-yl)amino)ethoxy)ethoxy)ethyl)-3-methyl-N-(2-((R)-1-methylpyrrolidin-2-yl)-1H-pyrrolo[3,2-c]pyridin-6-yl)-1H-indazole-6-carboxamide]",–,≥ 75%,≥ 75%,7.96
"Cc1nn(CCCCNc2cccc3c2C(=O)N(C2CCC(=O)NC2=O)C3=O)c2cc(C(=O)Nc3cc4[nH]c([C@H]5CCCN5C)cc4cn3)ccc12 (stereo partly drawn) [Example 21, 1-(4-((2-(2,6-dioxopiperidin-3-yl)-1,3-dioxoisoindolin-4-yl)amino)butyl)-3-methyl-N-(2-((R)-1-methylpyrrolidin-2-yl)-1H-pyrrolo[3,2-c]pyridin-6-yl)-1H-indazole-6-carboxamide]",≥ 75%,≥ 75%,≥ 75%,7.96

# — patent EP4667466A1, “PROTAC DEGRADERS OF MLLT1 AND/OR MLLT3” (priority 2024, dated 2025)
